Experimental data from the METLIN SMRT retention time set (Domingo-Almenara et al. 2019).

test: gradient 5% acetonitrile 3 min, to 50% in 2 min, to 85% in 15 min, held 3 min, 100 µL/min; details: column: Zorbax Extend-C18 2.1 x 50 mm; eluents: water / acetonitrile, 0.1% formic acid
Procedure, shortened: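 Pure standards were run in mixtures of ~100 molecules by HPLC coupled to a quadrupole time-of-flight mass spectrometer. The column was a Zorbax Extend-C18 (2.1 × 50 mm, 1.8 μm) at 100 μL/min, with water and acetonitrile each containing 0.1% formic acid, in positive and negative ionization mode. Dead and dwell volumes were 40 μL and 900 μL. Retention time was taken from computationally picked adduct peaks, each manually inspected, with data collected over 3 months.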

| Compound | RP-LC retention time |
| --- | --- |
| CN(C)CCCN1c2ccc3ccccc3c2Sc2cccc(Cl)c21 | 792 s |
| Cc1c(Cl)cccc1NC(=O)CCOc1ccccc1 | 888 s |
| Cc1ccc(CN2CCN(CC(=O)Nc3ccc(C)cn3)C(=O)C2=O)cc1 | 664 s |
| CNC(=O)c1ccc(-c2nc3cc(NS(=O)(=O)c4ccc(Br)cc4)ccc3n2C)cc1 | 673 s |
| COc1ccc(OCC2c3cc(OC)c(OC)cc3CCN2C(=O)CC(C)C)cc1 (stereo not given) | 891 s |
| COCc1ncc(C)n1CC1CN(C(=O)c2cccn2C)C1 | 585 s |
| CCN(Cc1ccncc1)C1CN(C(=O)NCc2ccc(C)cc2)C1 | 591 s |
| CC(C)CCNC(=O)Cn1c(=O)c2cnc(-c3ccc(Cl)cc3)nc2n(C)c1=O | 740 s |
| Cc1ccc(C(=O)N2CCC(n3c(C)cnc3C)C2)s1 (stereo not given) | 585 s |
| Cc1cccc2nc(-c3c(F)cccc3Cl)c(Nc3ccc4c(c3)OCCO4)n12 | 678 s |
| Cc1noc(C)c1-c1ccc(S(=O)(=O)N2CCc3ccccc32)cc1 | 1040 s |
| O=C(Nc1ccc(F)c(Cl)c1)C1CCc2nc(N3CCOCC3)ncc2C1 (stereo not given) | 855 s |
| O=C(NCCc1c[nH]c2ccc(Cl)cc12)c1cc(-c2ccccn2)nc2ccccc12 | 959 s |
| O=C(C1CC1)N1CCc2sc(S(=O)(=O)NCc3ccccc3)cc2C1 | 795 s |
| CCc1c(C2CCN(C(=O)c3ccn(CC)n3)CC2)noc1N | 644 s |
| Cc1ccc(N2C(=O)C3N=NN(Cc4nc(-c5ccccc5)no4)C3C2=O)cc1 (stereo not given) | 975 s |
| COc1ccccc1CNC(=O)C1CCCN(c2ccc(=O)n(-c3cccc(Cl)c3)n2)C1 (stereo not given) | 883 s |
| CCc1noc(NC(C)=O)c1-c1ccc(C)c(S(=O)(=O)Nc2ccc(Br)c(C)c2)c1 | 951 s |
| CCC(C(=O)Nc1ccc(-c2nc(Cn3cccn3)c(C)o2)cc1)c1ccccc1 (stereo not given) | 962 s |
| O=C(CC1CCN(S(=O)(=O)c2ccc(Cl)s2)CC1)N1CCN(c2ncccn2)CC1 | 872 s |
| COc1ccc(OC)c(CNC(=O)c2c(O)c3cccnc3[nH]c2=O)c1 | 921 s |

| Compound | RP-LC retention time |
| --- | --- |
| O=C(N1CCCC(c2nnc(-c3cccs3)o2)C1)C1(c2ccccc2)CCOCC1 (stereo not given) | 812 s |
| O=C(O)c1nn(Cc2ccc(Cl)cc2Cl)c2ccccc12 | 1050 s |
| O=C(Nc1ccc(C(F)(F)F)cc1)c1cnc(-c2ccccc2)nc1-c1ccncc1 | 1010 s |
| CN1C(=O)COc2ccc(-c3csc(NC(=O)CCC4CCCCC4)n3)cc21 | 1140 s |
| Cc1cc(C)n2cc(CSc3nc4cc([N+](=O)[O-])ccc4s3)nc2n1 | 623 s |
| O=C(NCc1cccc(C(F)(F)F)c1)C1CCCN(c2nccnc2Oc2ccccc2)C1 (stereo not given) | 1040 s |
| CCCNC(=O)C1CCCN(c2ccc(SCC(=O)Nc3cccc(Br)c3)nn2)C1 (stereo not given) | 730 s |
| Cc1cnn(CC(=O)N2CCc3nn(C)c(=O)n3CC2)c1 | 577 s |
| COc1ccc(C2CCN(C(=O)Nc3cccc(C(F)(F)F)c3)C2)cc1 (stereo not given) | 954 s |
| CNC(=O)[C@@H]1CN(C(=O)C2CC=CCC2)C[C@H]1c1nc(C)no1 (stereo not given in full) | 642 s |
| CCOC(=O)C1=C(CN(CC)Cc2ccccc2)NC(=O)NC1c1ccc(F)cc1 (stereo not given) | 696 s |
| COc1ccccc1N1CCN(c2ncc(S(=O)(=O)c3ccc(C(C)C)cc3)c(N)n2)CC1 | 1120 s |
| C[C@@H]1CN(C(=O)Cc2cccnc2)C[C@H]1c1nc(-c2ccncc2)no1 | 568 s |
| CC(C)CN1CC(c2nc(-c3ccccc3)no2)C2(CCCC2)C1 (stereo not given) | 763 s |
| CCNc1cc(N2CCCC(CCC(=O)N3CCCC(C(=O)OCC)C3)C2)ncn1 (stereo not given) | 664 s |
| O=C(NCc1cccnc1)C1c2ccccc2C(=O)N1Cc1ccccc1 (stereo not given) | 604 s |
| Cc1ccccc1Cn1nc2n(c1=O)CCCCC2 | 772 s |
| O=C(NCCN1CCc2ccccc2C1)C1CCCN(c2ncnc3c2nc2n3CCCCC2)C1 (stereo not given) | 622 s |
| Cc1ccc2c(c1)OCC(=O)N2Cc1nc(-c2ccccc2C)no1 | 1120 s |
| CN(C)S(=O)(=O)c1ccc(Cl)c(-c2nnc(-c3ccccc3)o2)c1 | 983 s |
| C=CCn1c(=O)c2ccccc2n(Cc2nc(-c3ccc(Br)cc3)no2)c1=O | 1150 s |

Results, then the molecule that gave them:

| RP-LC retention time | Compound |
| --- | --- |
| 644 s | Cc1c(C)n(-c2ccc(Cl)cc2)c2ncn(CC(=O)NC3CCCCC3)c(=O)c12 |
| 578 s | Cn1ncn2cc(S(=O)(=O)N3CCN(c4ccccn4)CC3)cc2c1=O |
| 733 s | COc1cc(OC)c2c(=O)cc(-c3cccnc3)oc2c1 |
| 1270 s | Cc1cccc2cc(-c3noc(C(C)C)n3)c(NCCc3ccc(S(N)(=O)=O)cc3)nc12 |
| 696 s | COCCCNC(=O)CN1C(=O)C2CCCCN2c2ccc(C(=O)N3CCCC3)cc21 (stereo not given) |
| 968 s | CC(=O)c1ccc(NC(=O)C(C)Oc2cc(C(F)(F)F)c3c(C)nn(C)c3n2)cc1 (stereo not given) |
| 820 s | COc1ccc(CCNc2ncc(C(=O)O)c(C(C)C)n2)cc1OC |
| 906 s | CC(C)c1ccccc1NC(=O)CN1CCN(c2ccc(Cl)cc2)C1=O |
| 779 s | COCCOC1CCC12CCN(C(=O)c1occc1C)CC2 (stereo not given) |
| 1180 s | CC(C)c1csc(-c2csc(S(=O)(=O)NC3CCCCC3)c2)n1 |
| 616 s | CC1Cc2cc(-c3cc(CC(=O)NCc4ccco4)no3)ccc2O1 (stereo not given) |
| 755 s | CCCCNC(=O)Cc1nnc(-c2ccc(C)cc2)o1 |
| 598 s | COc1ccc(CN(C)Cc2cc(=O)n3cc(C)ccc3n2)cc1 |
| 629 s | CCN(CCNC(=O)C1CCN(c2nnc3ccc(Cl)cn23)CC1)c1ccccc1 |
| 793 s | COC(=O)Cn1c(C)cc(=O)n2nc(-c3ccc(Cl)cc3)nc12 |
| 804 s | COc1ccc(Cl)cc1S(=O)(=O)N1CCC(C(=O)NCCCOC(C)C)CC1 |
| 973 s | CC(C)N1C(=O)C(C)(C(=O)Nc2ccccc2F)Oc2cccnc21 (stereo not given) |
| 684 s | CNc1ncn(-c2c(C)cccc2C)c(=O)n1 |
| 999 s | O=C(Cn1cnc2c(sc3nc(-c4ccccc4)ccc32)c1=O)Nc1ccc(F)cc1F |
| 880 s | CCCCNc1nc(NCC)nc(-n2cnc(SC)n2)n1 |
| 820 s | Cc1cccc(CN2CCCn3nc(C(=O)NCCc4cccs4)cc3C2=O)c1 |
| 779 s | Cc1ccc(NC(=O)Nc2ccc(NC(=O)N3CCCC(C(=O)NCC4CC4)C3)cc2)cc1 (stereo not given) |
| 634 s | Cc1ccn2cc(C(=O)N3CCN(c4ccccc4)CC3)nc2c1 |
| 657 s | CCOC(=O)c1ccc(NC(=O)C2=C(C)C(=O)OC23CCN(C(C)C)CC3)cc1 |

| RP-LC retention time | Compound |
| --- | --- |
| 934 s | O=C(Nc1ccc2c(c1)OCCO2)N1CCC2(CC1)Nc1ccccc1-n1cccc12 |
| 1320 s | Cc1ccc(-c2cc3c(=O)n(Cc4nc(-c5ccc(Cl)cc5)no4)ncn3n2)c(C)c1 |
| 716 s | Cc1cnc(C(=O)N2CCCCCCN(C)C(=O)[C@@H]3CCC[C@@H]32)cn1 |
| 622 s | COc1ccccc1NC(=O)c1cn2c(n1)CCCC2 |
| 681 s | Cc1ccc(S(=O)(=O)Nc2cccc(-c3cn4ccccc4n3)c2)cc1[N+](=O)[O-] |
| 794 s | O=C(C1CC1)N1CCc2sc(S(=O)(=O)NCc3cccs3)cc2C1 |
| 700 s | CCNC(=O)CCc1nc2ccccc2n(CC(=O)NCc2ccc(OC)cc2)c1=O |
| 759 s | CCC(Oc1ccc(=O)n(-c2ccc(F)cc2)n1)C(=O)NCCc1ccco1 (stereo not given) |
| 1150 s | COc1ccc(-c2cc(C(=O)Nc3cc(Cl)ccc3C)no2)cc1 |
| 738 s | Cn1nnc2cc(C(=O)N3CCCCC3)ccc21 |
| 871 s | CC(=O)c1ccc(NC(=O)c2cc(C(F)(F)F)n(C)n2)cc1 |
| 1040 s | CC(C)n1c2ccccc2c2nnc(SCC(=O)Nc3nc(-c4ccccc4)cs3)nc21 |
| 851 s | O=C(NCCc1c[nH]c2ccc(Cl)cc12)c1cncc(Br)c1 |
| 576 s | O=C(NCCCN1CCCCCC1)c1csc(-c2ccnc(N3CCOCC3)c2)n1 |
| 625 s | Cc1ccc(CN2CCC(CNS(=O)(=O)c3ccc4c(c3)CCCC(=O)N4)C2)cc1 (stereo not given) |
| 740 s | Cc1ccc(CNC(=O)C2CCCN(c3nnc4ccc(Cl)cn34)C2)o1 (stereo not given) |
| 750 s | Cc1nc(NC(=O)c2ccc(Cl)cc2)nc2cc3c(cc12)OCO3 |
| 572 s | O=C1N(CN2CCN(c3ccccn3)CC2)c2ccccc2C12OCCCO2 |
| 848 s | COc1ccc(CC(=O)Nc2nnc(SCc3nnc(-c4ccccc4)o3)s2)cc1 |
| 555 s | Cc1nc(C)c(C(=O)N2CCC3(CC2)CCC(O)(CN(C)C)CC3)s1 |
| 1020 s | CSc1ccccc1NC(=O)c1cc2ncc(Br)cn2n1 |
| 1030 s | CCOc1ccc(-c2nc(Cn3ccn4nc(-c5ccc(OC)cc5)cc4c3=O)c(C)o2)cc1OC |
| 1110 s | Cc1cc(-c2c(C)sc(C)c2S(=O)(=O)Nc2cccc(Cl)c2)n[nH]1 |
| 865 s | Cc1ccc(-n2nc3c(N4CCCC(C(=O)NCCC5=CCCCC5)C4)nnc(C)c3c2C)cc1 (stereo not given) |
